# Assay results published in US20160002174A1, “CXCR4 Antagonists for the Treatment of Medical Disorders” (Emory University, priority 2005, published 2016).
# Where two headings read alike, the source gives them in different places. Bridge positions count the residues as written; N and C are the ends. Square brackets hold non-standard residues; d marks the D form. Peptide text beside a SMILES is read from it. 2Nal = N[C@@H](Cc1ccc2ccccc2c1)C(=O)O; Cit = NC(=O)NCCC[C@H](N)C(=O)O
# How the values were obtained:
# [1] = molecular target: CXCR4 (Homo sapiens, UniProt P61073); experiment: Competition assays: test compounds binding to CXCR4 compared to SDF-1 (Table 2)
# Chain of CXCR4 (P61073 whole entry): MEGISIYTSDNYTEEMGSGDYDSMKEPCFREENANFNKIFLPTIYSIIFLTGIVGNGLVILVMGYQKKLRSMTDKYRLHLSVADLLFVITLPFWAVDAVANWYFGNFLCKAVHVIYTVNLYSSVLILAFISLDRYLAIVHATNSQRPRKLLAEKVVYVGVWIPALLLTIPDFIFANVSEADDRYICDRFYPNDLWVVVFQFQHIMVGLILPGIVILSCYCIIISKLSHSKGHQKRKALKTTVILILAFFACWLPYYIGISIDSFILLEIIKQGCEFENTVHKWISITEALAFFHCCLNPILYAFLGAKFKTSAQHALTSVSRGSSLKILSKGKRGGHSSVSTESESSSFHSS
# [2] = Half life of the compounds in mice; format: in vivo; details: for half-life: mouse, in vivo, read-out: t½ (min) in mice
# Experimental: A pharmacokinetic study of a novel anti-HIF-1α small molecule was performed. A stably integrated hypoxia-reporter system of glioma cells transfected with the hypoxia-reporting plasmid (described above) was utilized. A natural product-like small molecule library of 10,000 compounds was screened and the “best hit” was identified. HPLC methodology was developed for quantitatively detecting KCN-1 in plasma and other biological samples. For the pharmacokinetic study, KCN-1 (100 mg/kg) was dissolved in DMSO and administered intravenously to mice. Plasma samples were collected at given time Points (0.25, 0.5, 1, 2, 4 and 8 h) and KCN-1 levels were quantified by HPLC. The HPLC system consisted of a Varian Prostar gradient pump, a Prostar autosampler and a Prostar photo diode array detector. The column was a Luna 5μ C18 column (4.6 mm×250 mm, Phenomenex). The retention time of KCN1 and the internal standard were 8.7 and 17.7 min, respectively (FIG. 13). The in vivo stability of WZZL811S and WZ40 were measured after systemic administration of compounds over two hours (FIG. 17).
# The half life of the compounds in mice where determined are also shown.
# [3] = tested on: SHIV; experiment: SHIV infection, p27 antigen capture; format: cell-based; details: 0.1, 1, 10 or 100 nM drug prior to infection; 2 to 5 days
# Experimental: The effect of the test compounds on HIV infection in model cells was analyzed by p27 antigen capture using SHIV infected cells. Cells were incubated with 0, 0.1, 1, 10 or 100 nM drug prior to infection with SHIV. Viral titer was measured after infection by analyzing levels of p27 antigen. […] The inhibition was measurable at 2 days, and continued to 5 day incubations.
# [4] = tested on: metastatic 686LN cells; experiment: Head & Neck cancer metastasis model, 686LN cells injected through the tail vein, FDG-PET; format: in vivo, mice; details: 20 mg/mouse/twice weekly, thirty days
# Experimental: The metastatic 686LN cells were injected intravenously through the tail vein to generate experimental animal models for Head & Neck cancer metastasis, modulated via CXCR4. […] These 3-D projection images show lung metastases well (bone mets and liver mets were apparent in axial section images of mice in control groups, data not shown).
# [5] = tested on: CXCR4/SDF-1 mediated invasion of MDA-MB-231; experiment: Matrigel invasion assay, CXCR4/SDF-1-mediated invasion; format: cell-based, human; details: MDA-MB-231, 2 nM
# Experimental: FIG. 10 is a graph and representative blot of matrigel invasion and Akt phosphorylation in cells. A: Inhibition of CXCR4/SDF-1 mediated invasion of MDA-MB-231 in vitro by WZZL811S. CXCR4/SDF-1 mediated invasion of MDA-MB-231 was blocked either by 2 nM of TN14003 or WZZL811S. B: Incubating MDA-MB-231 cells with 100 ng/ml of SDF-1 for 30 min stimulated phosphorylation of Akt that blocked by WZZL811S in a dose-dependent manner
# Lowering CXCR4 mRNA levels by siRNAs inhibited CXCR4/SDF-1-mediated invasion as measured by a matrigel invasion assay. The CXCR4 ligand, SDF-1 (400 ng/ml) was added to the lower chamber to attract CXCR4-positive breast cancer cells to migrate through the matrigel. The invasion of MDA-MB-231 cells transfected with siRNA1 decreased to 39±4% of the control cells, 51±8% with siRNA2, and only 16±6% with both siRNA1+2 (FIG. 3A).
# WZZL811S was tested in a matrigel invasion assay to determine whether it can inhibit CXCR4/SDF-1-mediated invasion.
# [6] = tested on: HIV; details: MT-4 cells; read-out: concentration required for 50% protection of HIV-induced cytopathogenicity; cited from earlier work
# [7] = tested on: human umbilical vein endothelial cells (HUVECs); experiment: Endothelial capillary tube formation assay; format: cell-based; details: 100 nM, SDF-1 100 ng/ml, 18 hours
# Experimental: The anti-angiogenic effect of test compounds was measured by analyzing endothelial cell growth and tube formation. The angiogenic effect of SDF-1 (100 ng/ml) on capillary formation by human umbilical vein endothelial cells (HUVECs) was examined in vitro using Matrigel-coated 24-well plates precoated with Matrigel and incubated for 18 hours. The angiogenic effect of SDF-1 was inhibited by either 100 nM TN14003 (peptide-based CXCR4 antagonist) or WZZL811S treatment (FIG. 14a, graph FIG. 14b).
# [8] = tested on: CXCR4 protein levels; experiment: CXCR4 protein levels in treated cells; format: cell-based, human
# Source text: (§1) CXCR4/SDF-1 interaction activates PI3K/Akt and Ras/Raf/MEK/Erk pathways in a Gαi protein (PTX-sensitive)-dependent manner.
# [9] = tested on: Erk1/2 phosphorylation; experiment: SDF-1-stimulated Erk1/2 phosphorylation; format: cell-based, human; details: data not shown
# Source text: as §1
# [10] = tested on: MT-4 cells; details: cited from earlier work
# [11] = tested on: phosphorylation of Akt; experiment: SDF-1-stimulated phosphorylation of Akt (western blot); format: cell-based, human
# Source text: FIG. 2 is an image of a western blot showing phosphorylation of Akt.
# FIG. 10 is a graph and representative blot of matrigel invasion and Akt phosphorylation in cells.
# as §1
# [12] = competition with SDF-1 for binding to CXCR4, read-out: IC50 (nM) vs SDF-1
Compound,"IC50 [1, 12] [nM]",also measured
COc1ccc(NCc2ccc(CNc3ccc(OC)cc3)cc2)cc1 [MSX-125],> 10,
Cc1cc(CN)c(C)cc1CN [MSX-126],> 1000,
Oc1cc(CN2CCOCC2)c(O)cc1CN1CCOCC1 [MSX-127],> 1000,
c1ccc(-c2nc(-c3ccc(-c4nc(-c5ccccc5)c(-c5ccccc5)[nH]4)cc3)[nH]c2-c2ccccc2)cc1 [MSX-130],> 1000,
c1cc(CNC2=NCCN2)ccc1CNC1=NCCN1 [MSX-133],> 1000,
COc1cccc(NC(=O)c2ccc(C(=O)Nc3cccc(OC)c3)cc2)c1 [MSX-137],> 1000,
FC(F)(F)c1cccc(NCc2ccc(CNc3cccc(C(F)(F)F)c3)cc2)c1 [MSX-138],> 1000,
CN(C)Cc1ccc(CN(C)C)cc1 [MSX-141],> 1000,
Fc1ccc(NCc2ccc(CNc3ccc(F)cc3)cc2)cc1 [MSX-142],> 1000,
CN(C)CCNCc1ccc(CNCCN(C)C)cc1 [MSX-156s],> 1000,
c1ccc(NCCNCc2ccc(CNCCNc3ccccc3)cc2)cc1 [MSX-158],> 1000,
c1cc(CNCc2ccc(CNCc3ccncc3)cc2)ccn1 [MSX-159s],> 1000,
c1cncc(CNCc2ccc(CNCc3cccnc3)cc2)c1 [MSX-160],> 1000,
c1ccc(CNCc2ccc(CNCc3ccccn3)cc2)nc1 [MSX-161s],> 1000,
CN(Cc1ccc(CN(C)c2ccccc2)cc1)c1ccccc1 [MSX-164],> 100,
c1ccc(NCc2cc(CNc3ccccc3)cc(CNc3ccccc3)c2)cc1 [MSX-166],> 1000,
O=C(Nc1ccccc1)c1cc(CNc2ccccc2)cc(CNc2ccccc2)c1 [MSX-167],> 100,
c1ccc(NCCc2ccc(CCNc3ccccc3)cc2)cc1 [MSX-170],> 100,
c1ccc(NC[C@H]2CC[C@@H](CNc3ccccc3)CC2)cc1 [MSX-171],> 1000,
Cc1c(C)c(CNc2ccccc2)c(C)c(C)c1CNc1ccccc1 [MSX-172],,half-life [2]: < 5 min
c1ccc(NCc2c3ccccc3c(CNc3ccccc3)c3ccccc23)cc1 [MSX-174],> 100,
c1ccc(NCc2ccccc2CNc2ccccc2)cc1 [MSX-176],> 100,
N#Cc1ccc(NCc2ccc(CNc3ccc(C#N)cc3)cc2)cc1 [MSX-177],> 1000,
O=[N+]([O-])c1ccc(NCc2ccc(CNc3ccc([N+](=O)[O-])cc3)cc2)cc1 [MSX-178],,IC50 [1]: > 1000 nM
Oc1ccc(NCc2ccc(CNc3ccc(O)cc3)cc2)cc1 [MSX-179],> 1000,

Compound,"IC50 [1, 12] [nM]",also measured
Fc1cccc(NCc2ccc(CNc3cccc(F)c3)cc2)c1 [MSX-184],> 100,
Fc1ccc(NCc2ccc(CNc3ccc(F)cn3)cc2)nc1 [MSX-185],< 100,
OCc1ccc(CNc2ccc(F)cn2)cc1 [MSX-186],> 1000,
[O-][n+]1cccnc1NCc1ccc(CNc2nccc[n+]2[O-])cc1 [MSX-189],> 1000,
Clc1nc(Cl)nc(NCc2ccc(CNc3nc(Cl)nc(Cl)n3)cc2)n1 [MSX-190],,half-life [2]: < 5 min
Fc1cnc(NCc2ccc(CNc3ncc(F)c(Cl)n3)cc2)nc1Cl [MSX-192],1,
Fc1nccc(NCc2ccc(CNc3ccnc(F)n3)cc2)n1 [MSX-193],1,half-life [2]: 30 min
Fc1ccc(NCc2ccc(CNc3ncccn3)cc2)nc1 [MSX-197],1,half-life [2]: 16.5 min
c1ccc(NCc2ccc(CNc3ncccn3)cc2)nc1 [MSX-198],< 100,
COc1nc(NCc2ccc(CNc3ncc(F)c(OC)n3)cc2)ncc1F [MSX-201],1,
O=[N+]([O-])c1ccccc1NCc1ccc(CO)cc1 [MSX-202],1,half-life [2]: < 5 min
O=[N+]([O-])c1cccc(NCc2ccc(CNc3cccc([N+](=O)[O-])c3)cc2)c1 [MSX-203],,t½ (min) in mice [2]: infinite; IC50 [1]: 1 nM
FCc1ccc(CNc2ncccn2)cc1 [MSX-207],1,half-life [2]: 11 min
c1ccc(OCc2ccc(COc3ccccn3)cc2)nc1 [MSX-213],> 1000,
Clc1cccc(NCc2ccc(CNc3ncccn3)cc2)n1 [MSX-221],1,
Fc1cccc(NCc2ccc(CNc3ncccn3)cc2)n1 [MSX-222],,half-life [2]: 15 min
"N=C(N)NCCC[C@H](NC(=O)[C@@H]1CSSC[C@H](NC(=O)[C@H](Cc2ccc3ccccc3c2)NC(=O)[C@H](CCCNC(=N)N)NC(=O)[C@@H](N)CCCNC(=N)N)C(=O)N[C@@H](Cc2ccc(O)cc2)C(=O)N[C@@H](CCCNC(N)=O)C(=O)N[C@@H](CCCCN)C(=O)N[C@H](CCCCN)C(=O)N2CCC[C@H]2C(=O)N[C@@H](Cc2ccc(O)cc2)C(=O)N[C@@H](CCCNC(=N)N)C(=O)N[C@@H](CCCNC(N)=O)C(=O)N1)C(N)=O [TN-14003, reference compound] (H-RR[2Nal]CY[Cit]K[dK]PYR[Cit]CR-NH2; disulfide 4-13 (inferred); N-terminus assumed)",< 1,
N=C(N)NCc1ccc(CNC(=N)N)cc1 [WZ5S],,melting point: 278 to 281 °C (dec.)
c1ccc(NCCNCc2ccc(CNCCNc3ccccc3)cc2)cc1 [WZ8],,melting point: 42 to 43 °C
c1ccc(NCc2ccc(CNc3ccccc3)cc2)cc1 [WZ13],,melting point: 126 to 127 °C
O=C(Nc1ccccc1)c1cc(C(=O)Nc2ccccc2)cc(C(=O)Nc2ccccc2)c1 [WZ20],,melting point: 318 to 320 °C
c1cnc(NCc2ccc(CNc3ncccn3)cc2)nc1 [WZ40],,inhibition of SHIV infection (p27 antigen) [3]: inhibited SHIV infection at all concentrations tested
OCc1ccc(CNc2ncccn2)cc1 [WZ41],,inhibition of SHIV infection (p27 antigen) [3]: inhibited SHIV infection at all concentrations tested
TN14003,,"metastasis of 686LN cells to organs [4]: failed to metastasize to any organs; blocking of SDF-1-induced matrigel invasion [5]: blocked; EC50 [6]: 0.6 nM; inhibition of the angiogenic effect of SDF-1 (tube formation) [7]: inhibited; effect on CXCR4 protein levels [8]: did not affect; concentration attenuating Erk1/2 phosphorylation [9]: sub-nano molar; concentration leading to 50% toxicity [10]: 410 µM; concentration blocking Akt activation ([11]; 100 ng/ml SDF-1 for 30 minutes): sub-nano molar; blocking of SDF-1-stimulated Akt phosphorylation (dose-dependent) ([11]; MDA-MB-231 cells, 100 ng/ml SDF-1 for 30 min): blocked"
